Assay results as given in PubChem BioAssay AID624065 (The Scripps Research Institute Molecular Screening Center, 2012).
The source made the active and inactive calls. No rule for the calls is given here.

Target: Insulin-degrading enzyme (Homo sapiens) (UniProt P14735)
Test: IDE insulin-degradation inhibitors, late-stage follow-up, counter-screen for IDE inhibitor project, biochemical, TR-FRET, recombinant IDE (AID 624065)

Sequence of Insulin-degrading enzyme (Homo sapiens) (P14735 whole entry, looked up): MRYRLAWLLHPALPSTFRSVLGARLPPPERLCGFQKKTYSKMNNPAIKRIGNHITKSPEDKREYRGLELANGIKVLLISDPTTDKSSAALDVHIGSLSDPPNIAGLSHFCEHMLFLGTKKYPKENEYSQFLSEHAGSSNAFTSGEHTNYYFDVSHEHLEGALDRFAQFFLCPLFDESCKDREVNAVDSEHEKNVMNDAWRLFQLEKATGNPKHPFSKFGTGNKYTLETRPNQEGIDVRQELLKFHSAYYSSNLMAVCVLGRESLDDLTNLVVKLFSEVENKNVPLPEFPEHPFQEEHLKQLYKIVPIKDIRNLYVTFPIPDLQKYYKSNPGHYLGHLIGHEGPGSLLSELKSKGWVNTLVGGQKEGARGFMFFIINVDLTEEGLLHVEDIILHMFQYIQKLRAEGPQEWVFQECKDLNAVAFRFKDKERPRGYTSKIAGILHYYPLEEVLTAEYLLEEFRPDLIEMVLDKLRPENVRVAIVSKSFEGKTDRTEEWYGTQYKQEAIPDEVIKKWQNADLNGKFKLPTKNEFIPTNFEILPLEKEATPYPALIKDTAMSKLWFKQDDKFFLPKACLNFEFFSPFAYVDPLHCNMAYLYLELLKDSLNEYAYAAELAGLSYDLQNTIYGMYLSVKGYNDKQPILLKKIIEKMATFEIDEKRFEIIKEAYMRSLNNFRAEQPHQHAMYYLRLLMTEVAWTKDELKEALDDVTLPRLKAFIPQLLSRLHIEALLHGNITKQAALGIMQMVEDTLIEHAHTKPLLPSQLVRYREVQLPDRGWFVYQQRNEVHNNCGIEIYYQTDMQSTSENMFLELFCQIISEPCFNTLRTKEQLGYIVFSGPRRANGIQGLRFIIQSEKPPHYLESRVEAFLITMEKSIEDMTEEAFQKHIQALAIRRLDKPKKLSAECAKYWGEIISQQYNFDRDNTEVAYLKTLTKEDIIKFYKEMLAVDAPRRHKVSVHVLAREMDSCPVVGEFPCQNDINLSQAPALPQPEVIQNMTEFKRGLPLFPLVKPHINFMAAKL

| SMILES | IC50 |
| --- | --- |
| CCOc1ccc2[nH]c3c(N4CCN(C(=O)c5ccco5)CC4)ncnc3c2c1 | > 10 µM (inactive) |
| Cc1ccc(C)c(N2C(=N)S/C(=C\c3ccc(-c4ccccc4C(=O)O)o3)C2=O)c1 | > 10 µM (inactive) |
| COc1cccc(-c2nnc(SCc3nc4ccccc4[nH]3)n2Cc2ccco2)c1 | > 10 µM (inactive) |
| COc1cc(/C=C2\SC(=S)N(NC(C)=O)C2=O)ccc1OC(=O)c1ccco1 | > 10 µM (inactive) |
| Clc1cccc(-c2nnc(SCc3nc4ccccc4[nH]3)n2Cc2ccco2)c1 | > 10 µM (inactive) |
| O=C(Nc1ccc2oc(-c3cccnc3)nc2c1)c1ccc2c(c1)OCCO2 | > 10 µM (inactive) |
| COc1ccc(C(=O)N2CCN(C(=O)C3COc4ccccc4O3)CC2)cc1OC (stereo unspecified) | 4.1 µM |
| CCN(CC)c1ccc(/C=C2\C(=N)N3N=C(CC(=O)N4CCOCC4)SC3=NC2=O)cc1 | > 10 µM (inactive) |
| O=c1c2ccccc2sn1-c1cc(S(=O)(=O)N2CCOCC2)ccc1N1CCOCC1 | 4 µM |
| Nc1c(C(=O)Nc2nccs2)sc2nc(-c3cccs3)cc(C(F)(F)F)c12 | > 10 µM (inactive) |
| Cn1c(=O)c(C(=O)CN2CCCc3ccccc32)c(N)n(Cc2ccccc2)c1=O | > 10 µM (inactive) |
| Cc1cccc(-c2nnc(SCc3nc4ccccc4[nH]3)n2Cc2ccco2)c1 | > 10 µM (inactive) |
| O=C(C1CC1)N1CCN(c2ccnc3cc(Cl)ccc23)CC1 | > 10 µM (inactive) |
| O=C(Nc1cccc(C(F)(F)F)c1)c1csc(-c2ccncc2)n1 | > 10 µM (inactive) |
| Cc1c(CCC(=O)NCCCn2ccnc2)c(=O)oc2cc3oc4c(c3cc12)CCCC4 | > 10 µM (inactive) |
| O=C(O)c1ccccc1NS(=O)(=O)c1cccc(-n2sc3ccccc3c2=O)c1 | 4 µM |
